Usually IC50 stands for the midpoint of a concentration-inhibition curve. A higher IC50 goes with weaker potency.

We go through one compound from publication PMC5531494, “Target specificity, in vivo pharmacokinetics, and efficacy of the putative STAT3 inhibitor LY5 in osteosarcoma, Ewing's sarcoma, and rhabdomyosarcoma” (PLoS ONE, 2017).

One data set deals with MG63.3 cells. As to the kind of experiment: Sulforhodamine B cytotoxicity / cell viability assay. It is filed as cell-based. The settings on record: Homo sapiens, MG-63.3. The protocol:
Murine K7M2 and human MG63.3 OS cells were treated with increasing concentrations of LY5 for 2 hrs or 7 hrs. Western blotting was performed for pSTAT3 and STAT3 as indicated above to confirm inhibition of STAT3 phosphorylation in the cell lines prior to initiation of the PuMA assay. In addition, a sulforhodamine B colorimetric assay was performed to assess the cytotoxicity of LY5 in K7M2 and MG63.3 cells as previously described.
MG63.3 and K7M2 cell lines were exposed to increasing concentrations of LY5 to determine the IC50 (A). Western blot analysis was performed to determine the dose and duration of LY5 exposure required to inhibit STAT3 phosphorylation (B-C). Serial imaging of fluorescently labeled MG63.3 and K7M2 cells was performed in ex vivo LY5 treated lung sections (D). Metastatic burden was quantified by evaluation of the percent tumor burden (mean normalized fluorescent area). Data are reported as the mean ± standard deviation. In MG 63.3 experiment, p < 0.0001 Kruskal-Wallis test, p < 0.05 10 μM vs control at days 7, 14, and 21, 10 μM vs 1 μM at days 7, 14, and 21, 50 μM vs control at days 7, 14, and 21, and 50 μM vs 10 μM at days 7, 14, and 21 post-test Dunn. In K7M2 experiment, p < 0.0001 Kruskal-Wallis test, p < 0.05 10 μM vs control at days 14 and 21, 10 μM vs 0.1 μM at days 14 and 21, and 10 μM vs 1 μM at days 14 and 21, post-test Dunn.

The nature of data set [1]: Liver microsomal stability. It counts as in vitro ADME, canine. The settings on record: compared to mice; data not shown. The text has this:
The liquid chromatography-mass spectrometry system utilized for these analyses consisted of a Dionex Ultimate 3000 RSLCnano High Performance Liquid Chromatography system and a Thermo Finnigan Quantum Ultras EMR mass spectrometer with an electrospray ionization source. Positive ionization mode was used for both LY5 and the internal standard, hesperetin. Plasma samples were collected and analyzed by the OSU James Comprehensive Cancer Center Pharmacoanalytical Shared Resource. Pharsight Phoenix WinNonlin software using non-compartmental analysis was used to generate PK parameters including maximum plasma concentration (Cmax), amount of time that drug is present at Cmax (Tmax), and total area under the curve (AUC). AUC all and AUC last were calculated by linear trapezoidal method of concentration-time curve up to the last measured point. AUC inf-obs was calculated by log-linear extrapolation of the terminal phase beyond the last collection time. Bioavailability (F) was calculated for IP and PO administration routes. Plasma stability and liver microsomal stability of LY5 were also assessed through this shared resource.
On the technique in general: Microsomes from liver hold many membrane-bound enzymes, among them those of drug oxidation.

A further data set relates to OS-1. As to the kind of experiment: Subcutaneous xenograft study. It counts as in vivo, mice. The settings on record: OS-1, 40 mg/kg twice per day for five days for four consecutive weeks. As for the experimental part: C.B-17SC scid^-/- female mice (Taconic Farms, Germantown NY), were used to propagate subcutaneously implanted tumors. All mice were maintained under barrier conditions and experiments were conducted using protocols and conditions approved by the institutional animal care and use committee at University of Texas Health Science Center at San Antonio. Ten mice were used in each control or treatment group. Tumor volumes (cm^3) were determined and responses were determined using three activity measures as previously described.
The data were analyzed by using GraphPad Prism software (GraphPad Software, Inc., San Diego, CA). Data are presented as mean ± standard deviation. Data were analyzed by one-way analysis of variance (ANOVA), and Tukey’s post-test was used to assess differences between groups. Differences were considered statistically significant at p < 0.05. For in vivo xenograft models, an event was defined as four times the tumor volume at baseline similar to the PPTP criteria. […] The anti-tumor efficacy of LY5 was analyzed by using the statistical pipeline developed in PPTP [27].
Fig 6 Effects of LY5 are not mediated via STAT3 inhibition. […] After 72 hours of transfection, cells were harvested and analyzed for total (T) STAT3 and GAPDH protein expression by immunoblotting. […] Cell viability was then determined using Alamar Blue staining. […]

Another data set deals with ES and OS cells. Kind of data set: Alamar Blue cell viability assay, ES and OS panel. It counts as cell-based. The settings on record: Homo sapiens; range over ES and OS cells. The protocol: Sarcoma cell lines were seeded in 24-well plates in 1X RPMI medium containing 10% fetal bovine serum. Cells were then incubated with DMSO (control) or concentrations of LY5 ranging from 10 nM to 10 μM for 96 hrs. At the end of the incubation period, Alamar Blue (Invitrogen, Carlsbad, CA) was added to cells at one-tenth the volume of the cell culture medium and incubated for 3 hrs at 37° C in the dark. Fluorescence was then measured at an excitation/emissions wavelength of 570/590 nm and emission wavelength of 590 nm.
Fig 2 Biologic activity of LY5 in sarcoma cell lines. Dose response curves for LY5: RMS cell lines (RH30, RD, JR-1), ES cell lines (ES-3, ES-6, ES-7, ES-8), and an OS cell line (OS-17) were treated with LY5 (concentrations ranging from 10 nM to 10 μM) for 96 hours. Cell viability was determined using Alamar Blue staining. IC50 values are indicated for each cell line. Analyses were performed in triplicate and data are plotted as means ± standard deviation.

The nature of data set [2]: Toxicity / tolerability in mice. It is filed as in vivo. The protocol: Single-dose toxicity studies in mice were performed to identify the maximum tolerated dose of LY5. Additionally, 30 ICR mice (Harlan Laboratories, Indianapolis, IN) were divided into 3 groups to be dosed with 5 mg/kg LY5 (2 mg/ml) by oral (PO), intraperitoneal (IP) or intravenous (IV) routes to establish oral bioavailability. Animals were euthanized and blood was collected at allocated time points (5, 10, 20, 30 and 60 minutes, 2, 4, 6, 8 and 24 hrs) after LY5 administration, plasma was separated by centrifugation and frozen immediately on dry ice. Samples were stored at -80° C prior to analysis.

Each structure is given as a SMILES string. Marks after values point to notes of the source that are not given here.

On to `NS(=O)(=O)c1cccc2c1C(=O)C=C(Nc1cccnc1)C2=O` [LY5, 5,8-dioxo-6-(pyridin-3-ylamino)-5,8-dihydronaphthalene-1-sulfonamide], for which the IC50 in the data set with MG63.3 cells is 3000 nM; in the data set on ES and OS cells it was 1400 to 5100 nM. Besides, the “stability when incubated with canine liver microsomes” value in data set [1] is listed as “increased stability”. The “Group Response” value with OS-1 is listed as “PD2^f (Progressive disease 2, >50% TGI, >25% tumor progression)”. Besides, the “Survival (%)” value in the data set on OS-1 was 90%. In data set [2], this compound showed a tolerable dosing of 40 mg/kg BID. Further, in data set [2] (doses received via IV, oral, or IP routes), the toxicity entry is reported as “No toxicity was noted”.
